Laboratory results as given in patent US8697653B2, “Microparticle formulation for pulmonary drug delivery of anti infective molecule for treatment of infectious diseases” (priority 2010, dated 2014).

Tests used:
[1] = Dose scheduling, nose-only exposure lung deposition (Example 23); type: in vivo, Guinea pigs; settings: 3 mg/kg, regimen not stated
Method: To evaluate dose scheduling of the formulation of Example 9 Method A The assay was done as reported in The AAPS Journal, 2005, 7 (1), E20-E41.
(§1) A nose-only exposure in vivo lung deposition study was carried out as per the reference mentioned. Guinea pigs were divided in three groups. Group 1 received unformulated compound of formula I (3 mg/kg); group 2 received formulation of Example 9 Method A (3 mg/kg) once a day for one day and group 3 received formulation of Example 9 Method A (3 mg/kg) twice a day for one day. The unformulated compound of formula I and formulation of Example 9 Method A were aerosolized and the nose-only exposure was carried out using jet nebulizer. The animals were sacrificed and the lungs were collected and analyzed to quantitate the amount of compound of formula I (ng/g) deposited in the lung by LC-MS. LC-MS conditions are as provided in Tables 15, 16 and 17 of Example 21.

[2] = Estimation of solubility in simulated lung fluid (SLF, pH 7.4) by HPLC; type: physicochemical; settings: fassgf or other biorelevant, thermodynamic from solid
Method: SLF was prepared by method based on Respiratory Physiology & Neurobiology, 2008, 162, 73-79. 9 g of sodium chloride, 0.220 g of calcium chloride and 6.5 g of lactose were dissolved in 1000 mL of water. The pH of the resultant solution was adjusted to 7.4. Solubility of compound of formula I in SLF was measured at two temperatures, 45° C. and 60° C. For this, 1 mg of compound of formula I was added to 3 mL of SLF (in duplicates) and after vortexing for few seconds was incubated in water bath set at the required temperatures. Solubility was measured at one hour intervals for three hours. The solution was filtered through 0.22 μm filter and the filtrate was injected on HPLC. Solubility was calculated with respect to appropriate calibration curve.

[3] = Pilot in vivo lung deposition study (Example 20); design: species or system Guinea pigs; settings: guinea pig, lungs, 10 mg/kg aerosolized, passive breathing, read-out: compound of formula I deposited
Method: (§2) The assay was done as reported in The AAPS Journal, 2005, 7 (1), E20-E41.
A pilot in vivo lung deposition study was carried out as per the reference mentioned. Guinea pigs were divided in three groups. Group 1 received formulation of Example 9 Method A, group 2 received unformulated compound of formula I and group 3 was untreated (naïve group). 10 mg/kg of the formulation was aerosolized and the animals were allowed to breathe passively. Following administration of the formulation of Example 9 Method A the animals were sacrificed at 30 minutes time point. The lungs were collected and analyzed by HPLC.

[4] = tested on: MRC5, L929 and A549 cell lines; test: In vitro cytocompatibility assay, all cell lines evaluated; type: cell-based; settings: all the different cell lines evaluated
Method: The assay was carried out based on the reference Journal of Biomedical Materials Research, 2009, […], 281-292. This assay was performed to evaluate the cytocompatibility of the formulation of Example 9 Method A with the relevant cell lines and standard cells which are specified by the regulatory agencies. Cell density: 10,000/well for MRC 5 and […], and 3000/well for A549 Time points: 24 hours and 48 hours. The toxicological evaluation was done using The CellTiter 96 Aqueous One Solution Assay by Promega (Cat. no: G3582). The assay is a standard colorimetric method for determining the number of viable cells in proliferation or cytotoxicity assays. The MTS used in the assay is bioreduced by cells into a colored formazan product that is soluble in tissue culture medium. The quantity of formazan product as measured by the amount of 490 nm absorbance is directly proportional to the number of living cells in culture. […] The ELISA 96-well plate was then subjected to absorbance recordings at 490 nm (450-540 nm) with a 96-well plate reader. The average 490 nm absorbance from the “no-cell” control was subtracted from all other absorbance values and the corrected absorbance was utilized for further calculations. (Background absorbance from “no-cell” control is typically 0.2 to 0.3 absorbance units after 4 hours of incubation).

rat alveolar macrophages = test: In vitro macrophage uptake assay; type: cell-based
Method: The assay was carried out based on the reference Respiratory Research, 2009, 10, 44.
Bronchoalveolar lavage washings from the rats were taken after appropriate ethical permission. Sterile warmed saline was introduced into the lung and then removed by suction. Bronchoalveolar lavage fluid was transported on icepacks (usually 100 to 200 mL of bronchoalveolar lavage fluid per donor is desired). The fluid was subjected to centrifugation at 250 g for 10 minutes and the cells were collected. Pooled the cell pellets by resuspending the cells in a total of 10 mL of HBSS. 100 μL aliquot was removed and stained with Wright-Giemsa stain to do a differential cell count. The cell count was adjusted and plated the cells in macrophage culture medium (HAM F12 medium, Amimed, Switzerland). 0.5 mL of the cell suspension was added to each of the 6 well tissue culture plates with 0.5 mL of the macrophage culture medium. The cells were incubated for 24 hours at 37° C. and 5% CO2. Cell adherence and cell growth was evaluated and treated with the formulation of Example 9 Method A tagged with sulforhodamine dye. Post treatment the cells were evaluated for fluorescence. This fluorescence results for selective uptake of the formulation by the alveolar macrophages.

[5] = Physical properties: solubility in solvents and water; type: physicochemical; settings: chloroform, ethyl acetate, methanol, water
Method: • Column: Eurospher RP-18, (3μ, 4.6×125 mm) • Solvent system: Gradient (0% acetonitrile to 100% in 15 minutes against water, followed by 100% acetonitrile for 5 minutes) • Flow rate: 1 mL/minute • Detection (UV): 245 nm • Retention time: compound of formula I (12 to 13 minutes) Physical & Spectral properties of the compound of formula I: • Appearance: White powder • Melting point: 240° C.

[6] = Cumulative accumulation after once a day dosing for 5 days (Example 22); design: species or system Guinea pigs; settings: guinea pig, in vivo; lung, 3 mg/kg, 1 hour nebulization everyday for five consecutive days, sacrificed on 6th day; read-out: Compound of formula I deposited
Method: Evaluation of cumulative accumulation of formulation of Example 9 Method A after once a day dosing for 5 days for nebulization exposure period of 1 hour/day The assay was done as reported in The AAPS Journal, 2005, 7 (1), E20-E41.
as §1, with “in two” for “in three”, “(3 mg/kg) and” for “(3 mg/kg);”, “(3 mg/kg).” for “(3 mg/kg) once a day for one day and group 3 received formulation of Example 9 Method A (3 mg/kg) twice a day for one day.”, “jet nebulizer wherein the nebulization period was one hour everyday for five consecutive days and the” for “jet nebulizer. The”, “sacrificed on 6th day. The” for “sacrificed and the”

[7] = Pulmonary bioavailability, nose-only exposure lung deposition (Example 21); type: in vivo, Guinea pigs; settings: 3 mg/kg
Method: as §2
A nose-only exposure in vivo lung deposition study was carried out as per the reference mentioned. Guinea pigs were divided in two groups. Group 1 received unformulated compound of formula I (3 mg/kg) and group 2 received formulation of Example 9 Method A (3 mg/kg). The unformulated compound of formula I and formulation of Example 9 Method A were aerosolized and the nose-only exposure was carried out using jet nebulizer wherein the nebulization period was one hour. Following aerosol administration, the animals were sacrificed at 1 hour, 2 hours, 6 hours, 12 hours and 24 hours post aerosol exposure and the lungs were collected and analyzed to quantitate the amount of compound of formula I (ng/g) deposited in the lung by LC-MS.

[8] = Antimicrob. Agents Chemother., 1999, 37, 281-286; cited from earlier work

Question: With `C=C(NC(=O)C(=C)NC(=O)c1csc(C2=NC3c4csc(n4)C4NC(=O)c5csc(n5)C(C(C)(O)C(C)O)NC(=O)C5CSC(=N5)/C(=C\C)NC(=O)C(C(C)O)NC(=O)c5csc(n5)C3(CC2)NC(=O)C(C)NC(=O)C(=C)NC(=O)C(C)NC(=O)C(C(C)C)NC2C=Cc3c(C(C)O)cc(nc3C2O)C(=O)OC4C)n1)C(N)=O` (stereo not shown) [Compound of formula I] as the compound, how does the “Compound of formula I deposited” value [1] read?
Answer: 0 ng/g

Question: And the solubility at 1 h ([2]; SLF pH 7.4, 45° C.)?
Answer: 1.3 µg/mL

Question: What about the solubility at 2 h ([2]; SLF pH 7.4, 45° C.) of the same compound?
Answer: 0.9 µg/mL

Question: What about the solubility at 3 h ([2]; SLF pH 7.4, 45° C.) of the same compound?
Answer: 1.2 µg/mL

Question: And the solubility at 1 h ([2]; SLF pH 7.4, 60° C.)?
Answer: 0.6 µg/mL

Question: And the solubility at 2 h ([2]; SLF pH 7.4, 60° C.)?
Answer: 0.7 µg/mL

Question: And the solubility at 3 h ([2]; SLF pH 7.4, 60° C.)?
Answer: 1.3 µg/mL

Question: And the concentration at 30 min [3]?
Answer: 0 ng/g

Question: What about the “Cytotoxicity (in words)” value [4] of the same compound?
Answer: exhibited cytotoxicity

Question: What about the “Uptake by alveolar macrophages (in words)” value (rat alveolar macrophages) of the same compound?
Answer: does not show active uptake

Question: And the “Compound concentration in alveolar macrophages” value (from here on “Compound concentration”) (rat alveolar macrophages; 30 minutes)?
Answer: 2010 ng/mL

Question: What about the “Compound concentration” value (rat alveolar macrophages; 60 minutes) of the same compound?
Answer: 2010 ng/mL

Question: What about the “Compound concentration” value (rat alveolar macrophages; 120 minutes) of the same compound?
Answer: 1990 ng/mL

Question: And the “Solubility (in words)” value [5]?
Answer: Soluble in chloroform, ethyl acetate, methanol and insoluble in water

Question: And the concentration at 6 day [6]?
Answer: 1 ng/g

Question: What about the “Ability to reach the lungs on nebulization (in words)” value ([7]; nose-only nebulization) of the same compound?
Answer: unable to reach the lungs

Question: And the concentration at 1 h ([7]; guinea pig, in vivo, lung, nose-only, 1 hour nebulization, 1 hour post exposure, read-out: Compound of formula I deposited)?
Answer: 1 ng/g

Question: What about the concentration at 2 h ([7]; guinea pig, in vivo, lung, nose-only, 1 hour nebulization, 2 hours post exposure, read-out: Compound of formula I deposited) of the same compound?
Answer: 1 ng/g

Question: What about the concentration at 6 h ([7]; guinea pig, in vivo, lung, nose-only, 1 hour nebulization, 6 hours post exposure, read-out: Compound of formula I deposited) of the same compound?
Answer: 1 ng/g

Question: And the concentration at 12 h ([7]; guinea pig, in vivo, lung, nose-only, 1 hour nebulization, 12 hours post exposure, read-out: Compound of formula I deposited)?
Answer: 1 ng/g

Question: What about the concentration at 24 h ([7]; guinea pig, in vivo, lung, nose-only, 1 hour nebulization, 24 hours post exposure, read-out: Compound of formula I deposited) of the same compound?
Answer: 1 ng/g

Question: For `CN[C@H](CC(C)C)C(=O)N[C@H]1C(=O)N[C@@H](CC(N)=O)C(=O)N[C@H]2C(=O)N[C@H]3C(=O)N[C@H](C(=O)N[C@H](C(=O)O)c4cc(O)cc(O)c4-c4cc3ccc4O)[C@H](O)c3ccc(c(Cl)c3)Oc3cc2cc(c3O[C@@H]2O[C@H](CO)[C@@H](O)[C@H](O)[C@H]2O[C@H]2C[C@](C)(N)[C@H](O)[C@H](C)O2)Oc2ccc(cc2Cl)[C@H]1O` [Vancomycin], which “Lung concentrations as % of the plasma concentrations” value [8] is on record?
Answer: 20%
